Assay results reported in EP4635958A1, “PYRIMIDINE-CONTAINING POLYCYCLIC DERIVATIVE INHIBITOR, AND PREPARATION METHOD THEREFOR AND USE THEREOF” (Shanghai Hansoh Biomedical Co., Ltd., priority 2022, dated 2024).

Tests used:
[1] = Pharmacokinetic determination in mice (IV and PO, plasma, LCMS/MS); format: in vivo, Balb/c mice; conditions: mouse, in vivo, PO, 30 mg/kg, male Balb/c mice, overnight fasting, plasma
Excerpt: • 1. Study objective: Balb/c mice were used as test animals to study the pharmacokinetic behavior of the compounds in mice (plasma) after oral administration. • 2. Test scheme • 2.1 Test drugs: The example compounds of the present invention, made in house; • 2.2 Test animals: Balb/c mice, male, purchased from Shanghai Jiesijie Experimental Animal Co., Ltd., animal production license number (SCXK (Shanghai) 2013-0006 N0.311620400001794). • 2.3 Drug formulation: Formulation of a drug for oral administration: 10% Captisol in 50 mM citrate buffer pH 5.0.
(§1) Formulation of 50 mM citric acid: 4.8 g of citric acid was weighed into a 1000 ml glass bottle, ultrapure water was added to 300 ml, and the mixture was magnetically stirred until completely dissolved, additional ultrapure water was then added to 500 ml to formulate 50 mM citric acid.
(§2) Formulation of a solution containing 50 mM citric acid (10% Captisol, PH = 5): 50 g of Captisol powder was weighed and added to a 1000 ml glass bottle, 300 ml of 50 mM citric acid was added, and the mixture was magnetically stirred until completely dissolved, then additional citric acid was added to 500 ml, and the PH was adjusted to 5 using 10 M NaOH.
The example compounds were weighed and added to a 4 mL glass bottle separately, 2.4 mL of the solution was added and the mixture was subjected to ultrasound treatment for 10 min to obtain a colorless clear solution with a concentration of 3 mg/mL.
(§3) Formulation of a drug for intravenous administration: 5%DMSO+10%Solutol HS15+85%PBS.
(§4) The example compounds were weighed, and 5% DMSO was added according to the total administration volume; the mixture was vortexed and sonicated for 2 min to ensure complete dissolution; then, 10% Solutol HS15 was added, and the mixture was vortexed and sonicated for 2 min to achieve complete dissolution; finally, 85% PBS was added, and the mixture was vortexed and sonicated for 5 min; the obtained mixture was filtered through a 0.22 um membrane to obtain a colorless, transparent, and clear solution with a concentration of 0.2 mg/mL.
3 Balb/c mice, male; After overnight fasting, the animals were administered orally (PO) at a dose of 30 mg/kg with an administration volume of 10 mL/kg.
3 Balb/C mice, male; After overnight fasting, the animals were administered intravenously (IV) at a dose of 1 mg/kg with an administration volume of 5 mL/kg.
0.04 mL of blood was collected from the orbit before administration and at 0.25 h, 0.5 h, 1 h, 2 h, 4 h, 6 h, 8 h, and 24 h after administration and placed in an EDTA-2K test tube, and the test tube was centrifuged at 6000 rpm for 6 min at 4°C to separate the plasma, which was stored at -20°C; the animals were fed 4 h after administration.
The final determination results obtained by applying the LCMS/MS method are shown in the table below: Table 6: Pharmacokinetic parameters of the compounds administered intravenously in mice

[2] = test system: human colorectal cancer cell line (GP2D); assay: Anti-tumor efficacy in mouse transplanted tumor model of human colorectal cancer cell line (GP2D); format: in vivo, mice (BALB/c nude); conditions: 100mpk, PO*BID
Excerpt: 8-10 week old female conventional immunodeficient mice (BALB/c nude) with a body weight of 18 g-22 g were used as experimental animals, and a transplanted tumor model of human colorectal cancer cell line (GP2D) was used to conduct in vivo efficacy experiments to test the anti-tumor results of the example compounds after gavage administration.
(§5) The example compounds of the present invention, made in house.
A certain amount of the example compound was weighed, and an appropriate amount of 10% vehicle (Solutol HS15) was added. The mixture was stirred on a magnetic stirrer for 0.5 h to formulate a homogeneous suspension at the desired concentration.
The human colorectal cancer cell line (GP2D) was derived from COBIOER BIOSCIENCES CO., LTD, cultured on DMEM medium (Gibco, 11995-065) supplemented with 10% fetal calf serum (Gibco, 10091-148) and 1% penicillin/streptomycin (Gibco, 15140-122) and observed under a microscope (Thermo Fisher, 311). The cells were routinely passaged when the cells reached 80%-90% confluence in the culture flask. The passaged cells were cultured in a 37°C, 5% CO2 incubator (Thermo Fisher, 311).
Under aseptic conditions, human colorectal cancer cells (GP2D) in the logarithmic growth phase were harvested using 0.25% trypsin-EDTA (Gibco, 25200-056), washed and resuspended with phosphate buffer. The cell suspension was mixed with Matrigel (Corning, 356234) at a 1 : 1 ratio (v/v) and implanted subcutaneously into the right anterior dorsal region of immunodeficient mice (BALB/c nude). Each mouse was inoculated with 5*10^6 cells in a volume of 100 microliters (µL). After inoculation, when the tumor volume reached 100-200 mm^3, the mice would be evenly randomized into 5 groups based on the tumor size, with 5 mice per group, for in vivo efficacy experiments. The positive control group was the compound MRTX-1133, and the negative control group was the vehicle group.
Mode of administration: The positive control group was intraperitoneally injected, and the example compounds were administered orally.
Twice a week, the long and short diameters of the tumor were measured using a vernier caliper, and the tumor volume (mm^3) was calculated using the formula: V = 0.5*D*d*d, where D and d are the long and short diameters of the tumor, respectively. The anti-tumor efficacy was determined by dividing the average increase in tumor volume of compound-treated animals by the average increase in tumor volume of untreated animals. The calculation formula for tumor inhibition rate was: When there is no tumor regression, TGI(%) = 100-[(Vt-V0) administration group/(Vt-V0) vehicle control group]*100%. When tumor regression occurs, TGI(%) = [1-(V1-V0) administration group/V0 vehicle control group]* 100%. All animals were euthanized after the experiment.

GP2D = assay: Inhibition of proliferation of KRAS G12D mutant tumor cell line GP2D (CellTiter-Glo); conditions: Homo sapiens, GP2d, 72 h, read-out: GP2D IC50
Method: Experimental method: When SNU-1, HPAF-II, Panc0403, AsPC-1 or GP2D cells were cultured to the appropriate confluence, and the SNU-1, HPAF-II, Panc0403, AsPC-1 or GP2D cells were collected. The cells were adjusted to the appropriate cell density using complete culture medium, the cell suspension was plated onto a 96-well plate at 90 µL per well, and the plate was placed in the incubator at 37°C and 5% CO2 for adherent culture overnight. Solutions of the compound with different concentrations were formulated using DMSO and culture medium. A vehicle control was set up. […] Then, CellTiter-Glo solution was added, and the obtained mixture was shaken and mixed evenly, incubated in the dark for 10 min, and read with a BioTek Synergy H1 microplate reader. […] Experimental data processing method: The luminescence signal value was used to calculate the inhibition rate. Graphpad Prism software was used to fit the concentration and inhibition rate to a nonlinear regression curve, so as to obtain the IC50 value.

AsPC-1 = assay: Inhibition of proliferation of KRAS G12D mutant tumor cell line AsPC-1 (CellTiter-Glo); format: cell-based; conditions: Homo sapiens, ASPC1, about 72 h
Method: 1. Experimental objective: The inhibition activity of the example compounds on the proliferation of 5 KRAS G12D mutant cell lines SNU-1, HPAF-II, Panc0403, AsPC-1 and GP2D was determined. 2. Experimental instruments: • 2.1 Instruments: Microplate reader (BioTek Synergy H1); Pipette (Eppendorf & Rainin). • 2.2 Reagents: HPAF-II, PANC0403, AsPC-1 and GP2D were purchased from COBIOER BIOSCIENCES CO., LTD; SNU-1 was purchased from the cell bank of Chinese Academy of Sciences, Cell Titer-Glo was purchased from Promega, with a catalog number of G7573; RPMI 1640 was purchased from Gibco, with a catalog number of 22400089; DMEM was purchased from Gibco, with a catalog number of 11995065; FBS was purchased from Gibco, with a catalog number of 10091148; PBS was purchased from Gibco, with a catalog number of 10010023; trypsin was purchased from Gibco, with a catalog number of 25200056; cell culture plates were purchased from Corning Company, with a catalog number of 3610. 3. Experimental method: When SNU-1, HPAF-II, Panc0403, AsPC-1 or GP2D cells were cultured to the appropriate confluence, and the SNU-1, HPAF-II, Panc0403, AsPC-1 or GP2D cells were collected. The cells were adjusted to the appropriate cell density using complete culture medium, the cell suspension was plated onto a 96-well plate at 90 µL per well, and the plate was placed in the incubator at 37°C and 5% CO2 for adherent culture overnight. Solutions of the compound with different concentrations were formulated using DMSO and culture medium. A vehicle control was set up. The solutions of the compound were added to the 96-well plate at 10 µL per well, and the plate was placed in the incubator at 37°C and 5% CO2 for further culture for about 72 h. Then, CellTiter-Glo solution was added, and the obtained mixture was shaken and mixed evenly, incubated in the dark for 10 min, and read with a BioTek Synergy H1 microplate reader. 4. Experimental data processing method: The luminescence signal value was used to calculate the inhibition rate. Graphpad Prism software was used to fit the concentration and inhibition rate to a nonlinear regression curve, so as to obtain the IC50 value. 5. Experimental results: Table 2: Determination of the inhibition activity of the compounds on the proliferation of KRAS G12D mutant tumor cell line GP2D

[3] = Pharmacokinetic determination in rats (IV and PO, plasma, LCMS/MS); format: in vivo, SD rats; conditions: rat, in vivo, PO, 30 mg/kg, male SD rats, overnight fasting, plasma
Method: SD rats were used as test animals to study the pharmacokinetic behavior of the example compounds in rats (plasma) after oral administration.
as §5
3 SD rats per group, male. Shanghai Jiesijie Experimental Animal Co., Ltd., animal production license number (SCXK (Shanghai) 2013-0006 N0.311620400001794).
Formulation of a drug for oral administration: 10% Captisol in 50 mM citrate buffer pH 5.0.
as §1, §2
The example compounds were weighed and dissolved in the solution and the mixture was shaken well and subjected to ultrasound treatment for 15 min to obtain a colorless clear solution with a concentration of 3 mg/mL.
as §3, §4
3 SD rats per group, male; After overnight fasting, the animals were administered orally (PO) at a dose of 30 mg/kg with an administration volume of 10 mL/kg.
3 SD rats per group, male; After overnight fasting, the animals were administered intravenously (IV) at a dose of 1 mg/kg with an administration volume of 5 mL/kg.
0.2 mL of blood was collected from the jugular vein before administration and at 0.25 h, 0.5 h, 1.0 h, 2.0 h, 4.0 h, 6.0 h, 8.0 h, and 24.0 h after administration and placed in an EDTA-2K test tube, and the test tube was centrifuged at 6000 rpm for 6 min at 4°C to separate the plasma, which was stored at -20°C. the animals were fed 4 h after administration.
The final determination results obtained by applying the LCMS/MS method are shown in the table below: Table 8: Pharmacokinetic parameters of the compounds administered intravenously in rats

| Compound | AUC(0-inf) ([1]; read-out: AUC0-∞) [ng·h/mL] | Cmax ([1]; read-out: Cmax) [ng/mL] | half-life ([1]; read-out: T1/2 (converted)) [h] | Tmax ([1]; read-out: Tmax) [h] | Tumor volume (mm^3, Mean ± SD) Day 0 [2] [mm^3] | TGI(%) Day 14 [2] [%] | Tumor volume (mm^3, Mean ± SD) Day 14 [2] [mm^3] | ΔT/ΔC(%) Day 14 [2] [%] | IC50 (GP2D) [nM] | IC50 (AsPC-1) [nM] | AUC(0-inf) ([3]; read-out: AUCo-∞) [ng·h/mL] | Cmax ([3]; read-out: Cmax) [ng/mL] | Tmax ([3]; read-out: Tmax) [h] |
| --- | --- | --- | --- | --- | --- | --- | --- | --- | --- | --- | --- | --- | --- |
| C#Cc1c(F)ccc2cc(O)cc(-c3nc4c5c(nc(OCC6(CN7CCC(=CF)C7)CC6)nc5c3F)N3C[C@H]5CC[C@H](N5)[C@H]3[C@H](C)O4)c12 [Example 131] | 559 | 151 | 18.3 | 1 | 167 | 127.11 | 122 | 15.42 | 0.17 | 5 |  |  |  |
| C#Cc1c(F)ccc2cc(O)cc(-c3nc4c5c(nc(OCC6(CN7CCC(=CF)CC7C)CC6)nc5c3F)N3CC5CCC(N5)C3C(C)O4)c12 (stereo not shown) [Example 285] |  |  |  |  | 167 | 148.04 | 87 | 10.99 | 0.16 | 4.8 | 598 | 73 | 2 |
